Measured values as given in the supplement of paper PMC10307832.

Tests used:
Test in all cases: relative viability (nuclei count vs DMSO), 5 days (fraction); higher = more cells survive
[1] = compound: NC(=O)c1ccc(N(C(N)=O)c2c(F)cccc2F)nc1-c1ccc(F)cc1F [VX-702] + CS(=O)(=O)N1CCN(Cc2cc3nc(-c4cccc5[nH]ncc45)nc(N4CCOCC4)c3s2)CC1 [Pictilisib] (partner 1 µM)
In short: (§1)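 Cells from lung cancer lines were seeded into 1536-well plates and, one day later, dosed by pin tool. Treatments were either a single drug or a fixed dose of an anchor drug with five library-drug doses (not always all listed) in √10 steps. After 5 days, nuclei were stained in a one-step fixation (final 0.05% Triton X-100, 1% formaldehyde, 1 ug/ml Hoechst) and counted on 4× images, and relative viability is the treated-to-vehicle nuclei ratio, as the median of duplicate plates.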

[2] = compound: NC(=O)c1ccc(N(C(N)=O)c2c(F)cccc2F)nc1-c1ccc(F)cc1F [VX-702] + O=C(CCCCCCC(=O)Nc1ccccc1)NO [Vorinostat] (partner 1 µM)
In short: as §1

[3] = compound: CC(C)(C)c1nc(-c2cccc(NS(=O)(=O)c3c(F)cccc3F)c2F)c(-c2ccnc(N)n2)s1 [Dabrafenib] + Nc1nc2[nH]cc(CCc3ccc(C(=O)N[C@@H](CCC(=O)O)C(=O)O)cc3)c2c(=O)[nH]1 [Pemetrexed] (partner 0.2 µM)
In short: as §1

[4] = compound: CC(C)(C)c1nc(-c2cccc(NS(=O)(=O)c3c(F)cccc3F)c2F)c(-c2ccnc(N)n2)s1 [Dabrafenib] + O=C(c1cc(Cc2n[nH]c(=O)c3ccccc23)ccc1F)N1CCN(C(=O)C2CC2)CC1 [Olaparib] (partner 8 µM)
In short: as §1

Cell Line: NCI-H322M
- relative viability ([1]; first compound 0.02 µM): 0.543
- relative viability ([1]; first compound 0.2 µM): 0.528
- relative viability ([1]; first compound 0.6325 µM): 0.483
- relative viability ([1]; first compound 2 µM): 0.521
- relative viability ([2]; first compound 0.02 µM): 0.921
- relative viability ([2]; first compound 0.2 µM): 0.874
- relative viability ([2]; first compound 0.6325 µM): 0.854
- relative viability ([2]; first compound 2 µM): 0.93
- relative viability ([3]; first compound 0.009487 µM): 0.711
- relative viability ([3]; first compound 0.09487 µM): 0.602
- relative viability ([3]; first compound 0.3 µM): 0.572
- relative viability ([4]; first compound 0.009487 µM): 0.8
- relative viability ([4]; first compound 0.09487 µM): 0.745
- relative viability ([4]; first compound 0.3 µM): 0.736

Cell Line: NCI-H358
- relative viability ([1]; first compound 0.02 µM): 0.352
- relative viability ([1]; first compound 0.2 µM): 0.343
- relative viability ([1]; first compound 0.6325 µM): 0.301
- relative viability ([1]; first compound 2 µM): 0.323
- relative viability ([2]; first compound 0.02 µM): 0.675
- relative viability ([2]; first compound 0.2 µM): 0.601
- relative viability ([2]; first compound 0.6325 µM): 0.669
- relative viability ([2]; first compound 2 µM): 0.972
- relative viability ([3]; first compound 0.003 µM): 0.169
- relative viability ([3]; first compound 0.009487 µM): 0.166
- relative viability ([3]; first compound 0.03 µM): 0.152
- relative viability ([3]; first compound 0.09487 µM): 0.209
- relative viability ([3]; first compound 0.3 µM): 0.163
- relative viability ([4]; first compound 0.003 µM): 0.647
- relative viability ([4]; first compound 0.009487 µM): 0.697
- relative viability ([4]; first compound 0.03 µM): 0.546
- relative viability ([4]; first compound 0.09487 µM): 0.538
- relative viability ([4]; first compound 0.3 µM): 0.406

Cell Line: EMC-BAC-2
- relative viability ([1]; first compound 0.02 µM): 0.547
- relative viability ([1]; first compound 0.2 µM): 0.555
- relative viability ([1]; first compound 0.6325 µM): 0.508
- relative viability ([1]; first compound 2 µM): 0.432
- relative viability ([2]; first compound 0.02 µM): 0.477
- relative viability ([2]; first compound 0.2 µM): 0.427
- relative viability ([2]; first compound 0.6325 µM): 0.496
- relative viability ([2]; first compound 2 µM): 0.427
- relative viability ([3]; first compound 0.009487 µM): 0.401
- relative viability ([3]; first compound 0.03 µM): 0.392
- relative viability ([3]; first compound 0.09487 µM): 0.32
- relative viability ([3]; first compound 0.3 µM): 0.377
- relative viability ([4]; first compound 0.009487 µM): 0.444
- relative viability ([4]; first compound 0.03 µM): 0.433
- relative viability ([4]; first compound 0.09487 µM): 0.336
- relative viability ([4]; first compound 0.3 µM): 0.388

Cell Line: HCC-78
- relative viability ([1]; first compound 0.02 µM): 0.224
- relative viability ([1]; first compound 0.2 µM): 0.17
- relative viability ([1]; first compound 0.6325 µM): 0.176
- relative viability ([1]; first compound 2 µM): 0.237
- relative viability ([2]; first compound 0.02 µM): 0.393
- relative viability ([2]; first compound 0.2 µM): 0.486
- relative viability ([2]; first compound 0.6325 µM): 0.427
- relative viability ([2]; first compound 2 µM): 0.543
- relative viability ([3]; first compound 0.009487 µM): 0.935
- relative viability ([3]; first compound 0.03 µM): 0.91
- relative viability ([3]; first compound 0.09487 µM): 0.879
- relative viability ([3]; first compound 0.3 µM): 0.795
- relative viability ([4]; first compound 0.009487 µM): 0.847
- relative viability ([4]; first compound 0.03 µM): 0.733
- relative viability ([4]; first compound 0.09487 µM): 0.452
- relative viability ([4]; first compound 0.3 µM): 0.915

Cell Line: NCI-H2085
- relative viability ([1]; first compound 0.02 µM): 0.429
- relative viability ([1]; first compound 0.2 µM): 0.47
- relative viability ([1]; first compound 0.6325 µM): 0.466
- relative viability ([1]; first compound 2 µM): 0.4
- relative viability ([2]; first compound 0.02 µM): 0.861
- relative viability ([2]; first compound 0.2 µM): 0.802
- relative viability ([2]; first compound 0.6325 µM): 0.855
- relative viability ([2]; first compound 2 µM): 0.848
- relative viability ([3]; first compound 0.003 µM): 0.707
- relative viability ([3]; first compound 0.009487 µM): 1.05
- relative viability ([3]; first compound 0.03 µM): 0.861
- relative viability ([3]; first compound 0.09487 µM): 0.864
- relative viability ([3]; first compound 0.3 µM): 1.08
- relative viability ([4]; first compound 0.003 µM): 0.759
- relative viability ([4]; first compound 0.009487 µM): 0.769
- relative viability ([4]; first compound 0.03 µM): 0.823
- relative viability ([4]; first compound 0.09487 µM): 0.71
- relative viability ([4]; first compound 0.3 µM): 0.854

Cell Line: NCI-H441
- relative viability ([1]; first compound 0.02 µM): 0.503
- relative viability ([1]; first compound 0.2 µM): 0.492
- relative viability ([1]; first compound 0.6325 µM): 0.352
- relative viability ([1]; first compound 2 µM): 0.494
- relative viability ([2]; first compound 0.02 µM): 0.876
- relative viability ([2]; first compound 0.2 µM): 0.616
- relative viability ([2]; first compound 0.6325 µM): 0.637
- relative viability ([2]; first compound 2 µM): 0.76
- relative viability ([3]; first compound 0.009487 µM): 0.232
- relative viability ([3]; first compound 0.03 µM): 0.255
- relative viability ([3]; first compound 0.09487 µM): 0.259
- relative viability ([3]; first compound 0.3 µM): 0.263
- relative viability ([4]; first compound 0.009487 µM): 0.609
- relative viability ([4]; first compound 0.03 µM): 0.609
- relative viability ([4]; first compound 0.09487 µM): 0.334
- relative viability ([4]; first compound 0.3 µM): 0.588

Cell Line: NCI-H1975
- relative viability ([1]; first compound 0.02 µM): 0.27
- relative viability ([1]; first compound 0.2 µM): 0.283
- relative viability ([1]; first compound 0.6325 µM): 0.384
- relative viability ([1]; first compound 2 µM): 0.316
- relative viability ([2]; first compound 0.02 µM): 0.752
- relative viability ([2]; first compound 0.2 µM): 0.719
- relative viability ([2]; first compound 0.6325 µM): 0.701
- relative viability ([2]; first compound 2 µM): 0.786
- relative viability ([3]; first compound 0.003 µM): 0.304
- relative viability ([3]; first compound 0.009487 µM): 0.282
- relative viability ([3]; first compound 0.03 µM): 0.272
- relative viability ([3]; first compound 0.09487 µM): 0.28
- relative viability ([3]; first compound 0.3 µM): 0.292
- relative viability ([4]; first compound 0.003 µM): 0.723
- relative viability ([4]; first compound 0.009487 µM): 0.758
- relative viability ([4]; first compound 0.03 µM): 0.706
- relative viability ([4]; first compound 0.09487 µM): 0.681
- relative viability ([4]; first compound 0.3 µM): 0.718

Cell Line: COR-L23
- relative viability ([1]; first compound 0.02 µM): 0.908
- relative viability ([1]; first compound 0.2 µM): 0.855
- relative viability ([1]; first compound 0.6325 µM): 0.772
- relative viability ([1]; first compound 2 µM): 1.06
- relative viability ([2]; first compound 0.02 µM): 0.511
- relative viability ([2]; first compound 0.2 µM): 0.47
- relative viability ([2]; first compound 0.6325 µM): 0.46
- relative viability ([2]; first compound 2 µM): 0.491
- relative viability ([3]; first compound 0.003 µM): 0.18
- relative viability ([3]; first compound 0.009487 µM): 0.213
- relative viability ([3]; first compound 0.03 µM): 0.193
- relative viability ([3]; first compound 0.09487 µM): 0.209
- relative viability ([3]; first compound 0.3 µM): 0.196
- relative viability ([4]; first compound 0.003 µM): 0.394
- relative viability ([4]; first compound 0.009487 µM): 0.291
- relative viability ([4]; first compound 0.03 µM): 0.312
- relative viability ([4]; first compound 0.09487 µM): 0.325
- relative viability ([4]; first compound 0.3 µM): 0.324
